Entries after “also recorded” stand apart in the source; their conditions may differ.
Experiments:
Assay type in all cases: cell-based
CBP = molecular target: T1, CBP (Homo sapiens, UniProt Q92793); assay: Quantification of CBP degradation by Western blotting in LP1 cells
T1 construct: quantification of CBP and EP300 levels by Western blotting following 16 h treatment of LP1 cells; endogenous in cells; host or cells: LP1 cells
Protocol: LP1 cells were cultured in DMEM (Gibco, 41966-029) supplemented with 15 % FBS (Sigma, F9665); MM1S and LNCaP cells in RPMI 1640 ATCC modification (Gibco, […]
DMEM/F12 (Gibco, 11320074) supplemented with 1 % non-essential amino acids […]
additionally supplemented with 1 % penicillin/streptomycin (Gibco, 15070-063), and cells maintained in a humidified incubator with 5 % CO2 at 37 °C. The identity of all lines (except for MM1S which were recently purchased from ATCC) was authenticated by STR profiling (performed by Microsynth).
Quantification of CBP/EP300 degradation by Western blotting
LP1 cells plated on 6 well plates were treated with the stated compounds at a final concentration of 0.1 % DMSO for the stated time. Cells were harvested on ice, washed in PBS and lysed in RIPA buffer (50 mM tris pH 7.5, 2 mM EDTA, 150 mM NaCl, 0.5 % sodium deoxycholate, 1 % Triton X100) supplemented with cOmplete ™ protease inhibitor cocktail (Roche). Protein concentrations were determined using the Pierce ™ BCA Protein Assay Kit (Thermo Scientific, 23227) and equal amounts were separated on 4-12 % ExpressPl us™ PAGE gels (GenScript, M41215). Proteins were transferred to PVDF membranes, the membranes were blocked with 5 % milk (Merk Millipore, 115363) in PBS-T and proteins were stained with the following antibodies at 4 °C overnight: CBP […]
BRD4 (Bethyl Laboratories, A301-985A50, diluted 1:2000) and vinculin (Invitrogen, 42H89L44, diluted 1:1000). For detection, membranes were incubated for 1 h at room temperature with HRP-conjugated secondary antibodies (Southern Biotech, anti-rabbit […]
SuperSignal™ West Pico PLUS Chemiluminescent Substrate (Thermo Scientific, 34580) and the Vilber Fusion-FX7 imager. Bands were quantified using ImageJ software and protein levels normalized to protein from DMSO treated cells run on the same membrane. For dose response curves, data was fitted using a four -parameter dose-response curve in GraphPad Prism v. 9.5.1, where the top is fixed at 100 %. The DC50 was defined as the PROTAC concentration resulting in 50 % remaining protein. […]

MM1S cells = assay: Cell viability (resazurin), MM1S; conditions: Homo sapiens, MM1.S, 72 h, 3 days
Protocol: (§1) The primer sequences used were:
(§2) Gene Gene ID Forward Primer (5’-3’) Reverse primer (5’-3’)
(§3) myc NM_001354870.1 GTAGTGGAAAACCAGCC […]
crebbp NM_004380.3 TGTCACAGGGACAGGTGC […]
Cells were plated onto 96 well plates at the following densities in 90 μl volume: 3x104
LP1 cells/well or 5x10^3 LNCaP cells/well both plated same day as treatment, or 2x104
MM1S cells/well or 1.5x10^3 SH-SY5Y cells/well both plated day prior to treatment.
Compounds were added in 10 μl to give the stated concentrations with a final
concentration of 0.1 % DMSO. Following 3 days of compound treatment, resazurin
(Acros Organics, 189900010) was added at a f inal concentration of 86 μM and incubated
for the following times: MM1S 5 h, LP1 3 h, LNCaP 1 h 30 min, SH-SY5Y 6 h.
(§4) Fluorescence (excitation = 560 nm, emission = 590 nm) was measured using a
spectraMax M5 microplate reader (Molecular Devices) and cell viability was calculated
relative to DMSO treated cells on the same plate. Data was fitted using a four -parameter
dose-response curve in GraphPad Prism v. 9.5.1, where the top is fixed at 100 %. GI50
values were calculated as the concentration required to inhibit cell viability to 50 %
relative to DMSO treated cells after 3 days.
Sample digestion and clean up: Treated cells were washed in PBS and cell pellets
were then lysed in 4 % SDS/Tris-HCl, treated with High Intensity Focused Ultrasound […]

SH-SY5Y cells = assay: Cell viability (resazurin), SH-SY5Y; conditions: 3 day treatment
Protocol: normalized to DMSO treated lanes on the same membrane. (Several compounds were
measured at the same time, so DMSO treated lanes are replicated here between
Figure S5. Anti-proliferation in additional cell lines. LNCaP (A and C) and SH-SY5Y (B)
cell viability following 3 day compound treatment, and LNCaP following 6 day treatment
(D), determined using resazurin.
After 3 days of treatment, dCE-2 only has a mild effect on the proliferation of LNCaP and
SH-SY5Y cells (Figure S5A and B).
the new CBP/EP300 PROTACs CBPD -268 and CBPD-4092,3 which have enhanced anti-
proliferative activity in LNcaP cells relative to their parent inhibitor s. However, although
these PROTACs have effects at very low concentrations, their effect plateaus and a
substantial proportion of cells remain viable at high compound concentrations. Similarly,
degradation of CBP and EP300, the maximal effect of this PROTAC is also limited under
the conditions we used (Figure S5C). Through this work it was clear to us that these […]
as §1, §2, §3, §4
spectraMax M5 microplate reader (Molecular Devices) and cell viability was calculated […]
values were calculated as the concentration required to inhibit cell viability to 50 % […]

CBP/EP300 = assay: Western blot of CBP and EP300 levels in various cell lines; conditions: 16 h, 1 μM

T1 sequence (Q92793 whole entry): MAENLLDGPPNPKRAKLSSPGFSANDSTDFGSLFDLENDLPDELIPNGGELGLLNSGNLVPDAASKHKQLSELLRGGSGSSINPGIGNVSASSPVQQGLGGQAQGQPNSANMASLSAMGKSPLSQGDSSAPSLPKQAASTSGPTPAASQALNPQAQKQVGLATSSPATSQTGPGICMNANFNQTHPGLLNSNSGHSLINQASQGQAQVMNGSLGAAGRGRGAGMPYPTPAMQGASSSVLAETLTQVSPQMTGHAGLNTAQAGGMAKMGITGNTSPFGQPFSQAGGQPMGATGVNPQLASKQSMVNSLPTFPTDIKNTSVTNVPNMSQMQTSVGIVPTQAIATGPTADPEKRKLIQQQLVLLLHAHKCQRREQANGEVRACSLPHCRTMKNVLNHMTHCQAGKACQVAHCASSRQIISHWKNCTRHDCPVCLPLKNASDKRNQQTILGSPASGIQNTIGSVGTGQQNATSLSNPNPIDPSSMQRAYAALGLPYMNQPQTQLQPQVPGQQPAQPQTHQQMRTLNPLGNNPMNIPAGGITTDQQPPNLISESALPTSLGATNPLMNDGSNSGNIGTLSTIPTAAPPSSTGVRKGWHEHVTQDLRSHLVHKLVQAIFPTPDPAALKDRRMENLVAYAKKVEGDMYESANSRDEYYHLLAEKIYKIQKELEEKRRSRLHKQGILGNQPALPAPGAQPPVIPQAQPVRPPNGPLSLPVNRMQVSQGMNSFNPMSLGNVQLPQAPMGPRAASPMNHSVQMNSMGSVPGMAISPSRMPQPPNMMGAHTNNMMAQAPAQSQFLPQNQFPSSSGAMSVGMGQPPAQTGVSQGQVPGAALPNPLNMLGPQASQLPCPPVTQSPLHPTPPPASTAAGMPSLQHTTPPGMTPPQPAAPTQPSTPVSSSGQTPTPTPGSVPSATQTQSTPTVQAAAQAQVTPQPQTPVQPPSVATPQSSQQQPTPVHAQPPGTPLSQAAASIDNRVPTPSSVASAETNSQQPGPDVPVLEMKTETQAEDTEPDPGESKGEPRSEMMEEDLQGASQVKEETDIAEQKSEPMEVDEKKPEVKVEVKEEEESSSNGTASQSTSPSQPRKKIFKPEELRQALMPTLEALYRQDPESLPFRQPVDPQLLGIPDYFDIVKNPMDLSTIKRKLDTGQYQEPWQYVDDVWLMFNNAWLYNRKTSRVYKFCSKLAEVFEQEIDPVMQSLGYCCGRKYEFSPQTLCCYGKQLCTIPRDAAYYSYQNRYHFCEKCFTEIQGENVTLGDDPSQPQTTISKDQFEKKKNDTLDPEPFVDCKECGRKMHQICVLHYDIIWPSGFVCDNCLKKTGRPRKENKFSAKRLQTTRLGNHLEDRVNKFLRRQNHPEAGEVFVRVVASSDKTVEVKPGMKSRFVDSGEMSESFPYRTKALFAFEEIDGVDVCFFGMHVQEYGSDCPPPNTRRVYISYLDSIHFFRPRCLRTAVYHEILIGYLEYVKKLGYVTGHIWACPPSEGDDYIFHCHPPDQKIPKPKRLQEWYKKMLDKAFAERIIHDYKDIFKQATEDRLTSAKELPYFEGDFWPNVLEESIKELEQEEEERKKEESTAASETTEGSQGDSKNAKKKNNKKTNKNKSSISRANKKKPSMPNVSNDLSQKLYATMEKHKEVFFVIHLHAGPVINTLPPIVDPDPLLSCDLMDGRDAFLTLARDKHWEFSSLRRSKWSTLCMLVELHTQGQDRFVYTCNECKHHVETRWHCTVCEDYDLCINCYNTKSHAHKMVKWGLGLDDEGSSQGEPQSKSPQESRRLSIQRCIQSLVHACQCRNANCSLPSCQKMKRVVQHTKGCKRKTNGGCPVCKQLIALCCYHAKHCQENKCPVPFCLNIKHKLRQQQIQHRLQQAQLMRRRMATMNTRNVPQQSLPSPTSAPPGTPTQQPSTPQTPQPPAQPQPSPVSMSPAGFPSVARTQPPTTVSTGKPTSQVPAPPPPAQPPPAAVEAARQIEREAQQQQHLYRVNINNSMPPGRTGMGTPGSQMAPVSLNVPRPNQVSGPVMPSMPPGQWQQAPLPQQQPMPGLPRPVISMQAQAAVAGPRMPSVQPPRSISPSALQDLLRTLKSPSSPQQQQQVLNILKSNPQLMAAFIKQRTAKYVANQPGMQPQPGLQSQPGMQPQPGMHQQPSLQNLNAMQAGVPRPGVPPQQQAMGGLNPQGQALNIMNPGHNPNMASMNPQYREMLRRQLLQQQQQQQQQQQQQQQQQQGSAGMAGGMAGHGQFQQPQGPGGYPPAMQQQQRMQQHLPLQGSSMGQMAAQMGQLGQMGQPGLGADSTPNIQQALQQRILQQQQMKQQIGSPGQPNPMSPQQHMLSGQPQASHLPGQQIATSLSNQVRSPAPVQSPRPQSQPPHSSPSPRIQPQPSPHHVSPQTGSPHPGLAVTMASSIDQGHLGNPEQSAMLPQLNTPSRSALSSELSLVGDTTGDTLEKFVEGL

time at which CBP/EP300 degradation begins to occur (CBP; 1 μM, time course): ≤ 2 h | time to reach maximal CBP/EP300 degradation (Dmax) (CBP; 1 μM, time course): 16 to 24 h | % remaining CBP (CBP; 5 μM compound, 16 h, Western blot): 16% | DC50 (CBP; 16 h): 40 nM | Dmax (CBP; LP-1, 16 h): > 85% | GI50 (MM1S cells): 35 nM
SMILES: Cc1cc2c(NC(=O)c3cc(NC(=O)CCCCCCCCCCNc4cccc5c4C(=O)N(C4CCC(=O)NC4=O)C5=O)cc(-c4ccn(C)n4)c3)cccc2nn1 (centres unmarked) [dCE-2]
effect on proliferation of SH-SY5Y cells (SH-SY5Y cells): mild effect; also recorded: limited effect | CBP/EP300 degradation in MM1S, LNCaP and SH-SY5Y cells (CBP/EP300): active degrader
